Data taken from publication PMC7403315, “Cyclic peptide FXII inhibitor provides safe anticoagulation in a thrombosis model and in artificial lungs” (Nature Communications, 2020).
pKi: −log10 of the molar value. Read-outs that look alike come from different tables or passages of the source. Starred links: 1 amine or outer side, 2 acyl side, 3 side chain; linkers in the order of their positions; H or OH if unused. Positions of bridges follow the written chain, without caps; N, C: chain ends. Non-standard residues stand in square brackets, D forms with d. Residues, ends and D or L forms follow the SMILES beside them. TATA = O=C(CC[*:1])N1CN(C(=O)CC[*:2])CN(C(=O)CC[*:3])C1; Phe(4-F) = N[C@@H](Cc1ccc(F)cc1)C(=O)O; β3hR = N=C(N)NCCC[C@H](N)CC(=O)O

Target: T1, recombinant human FXIIa (Homo sapiens, UniProt P00748)
T1 construct: made in house; host or cells: CHO cells
T1 sequence (P00748 373-615 limits assumed): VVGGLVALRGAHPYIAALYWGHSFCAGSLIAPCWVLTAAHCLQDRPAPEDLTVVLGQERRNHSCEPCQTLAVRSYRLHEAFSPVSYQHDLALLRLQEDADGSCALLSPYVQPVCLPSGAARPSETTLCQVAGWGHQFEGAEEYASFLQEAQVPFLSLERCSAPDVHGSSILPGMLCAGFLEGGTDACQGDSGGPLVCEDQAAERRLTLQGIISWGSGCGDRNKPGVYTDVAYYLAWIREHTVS
T1 sequence (P00748 20-372 limits assumed): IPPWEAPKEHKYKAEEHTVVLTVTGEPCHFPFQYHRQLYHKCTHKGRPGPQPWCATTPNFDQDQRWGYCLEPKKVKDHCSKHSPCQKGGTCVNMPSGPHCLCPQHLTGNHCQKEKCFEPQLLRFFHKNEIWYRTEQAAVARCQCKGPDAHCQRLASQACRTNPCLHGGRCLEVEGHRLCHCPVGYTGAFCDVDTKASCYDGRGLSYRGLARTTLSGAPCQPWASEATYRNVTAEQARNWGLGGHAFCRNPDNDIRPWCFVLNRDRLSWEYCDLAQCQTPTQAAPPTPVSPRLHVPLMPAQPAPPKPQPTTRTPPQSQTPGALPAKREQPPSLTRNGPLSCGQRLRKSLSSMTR
Assay: Inhibition of recombinant FXIIa (rFXIIa)
Format: biochemical
Settings: for remaining activity at 0.001 µM: peptide 1 nM; for remaining activity at 0.002 µM: peptide 2 nM
Excerpt: The protein sequences for human, rabbit and pig factor XII were taken from the following database entries: human FXII: UniProtKB - P00748; rabbit FXII: NCBI RefSeq - XP_008253687.1; pig FXII: UniProtKB - O97507. The sequences are shown in the Supplementary Methods. DNA encoding the full-length proteins were ordered from Eurofins Genomics. The codons in these sequences were optimized for mammalian expression using the codon optimization tool from Integrated DNA Technologies (IDT). In addition to the FXII gene, the ordered DNA sequences encode a C-terminal GSGS-linker, a His6-tag and a stop codon, and they are flanked by NheI (GCTAGC) and a HindIII (AAGCTT) restriction sites. The entire DNA sequences are provided in the supporting materials. The DNA sequences were cloned into the pEXPR-IBA42 vector downstream of a BM40 signal sequence for secreted expression in mammalian cells. The ligated vector was transformed into DH5 alpha electrocompetent E. coli cells. Plasmid DNA from single clones was sequenced by Sanger sequencing.
1.5 mg plasmid DNA was transfected into 500 ml CHO cells (Thermo Fisher Scientific) in cell suspension culture using polyethylenimine (PEI). Cells were incubated for seven days at 37 °C, 5% CO2 under shaking conditions. The cells were removed by centrifugation and the secreted protein was purified from the supernatant using a nickel-charged immobilized metal affinity chromatography (IMAC) column (5 ml HisTrap FF Crude, GE Healthcare). The column was equilibrated with buffer containing 15 mM imidazole, 100 mM NaCl, 20 mM Tris-HCl, pH 7.4. The pH of the cell culture supernatant was adjusted to 8.0 using NaOH. The supernatant was run through the column at a flow of 5 ml per min. The column was washed with 20 column volumes of equilibration buffer at a flow of 5 ml per min. The protein was eluted with 500 mM imidazole, 100 mM NaCl, 20 mM Tris-HCl, pH 7.4 at a flow of 5 ml per min. The buffer was subsequently exchanged to 100 mM NaCl, 20 mM Tris-HCl, pH 7.4 by three iterative steps of 10-fold dilution and 10-fold concentration using a 10,000 MWCO centrifugal concentrator. The concentration was determined by measuring absorption at 280 nm (ε = 100,000). For the activation of recombinant FXII, 10 μg protein was diluted to a total volume of 10 μl 100 mM NaCl, 20 mM Tris-HCl, pH 7.4 and further diluted with 10 μl of 2-fold concentrated assay buffer (300 mM NaCl, 20 mM MgCl2, 2 mM CaCl2, 20 mM Tris-HCl, 0.02% (v/v) Triton-X100, pH 7.4). Dextran sulfate 500 kDa (DXS500) was added to a final concentration of 0.2 μg μl^−1 and incubated for 1 hour at 37 °C. 5 μg protein was analyzed by SDS-PAGE under reducing conditions.
Protease inhibition assays
The inhibitory activity of peptides was determined by measuring the residual protease activity with a fluorogenic substrate. The assay was performed in buffer containing 10 mM Tris-Cl, pH […]
1% (v/v) DMSO in a volume of 150 µl. FXIIa activity was measured with the fluorogenic substrate Boc-Gln-Gly-Arg-AMC (Bachem) at a final concentration of 50 µM. Mouse α-FXIIa (Molecular Innovations cat # MFXIIA) and human β-FXIIa (Molecular Innovations cat # HFXIIAB) were used at final concentrations of 0.4 nM. The reaction was pipetted as follows: 50 µl of bicyclic peptide in assay buffer were added to 50 µl of FXIIa in assay buffer and incubated for 10 minutes at 25°C before 50 µl of 150 µM fluorogenic substrate in assay buffer were added to measure the residual protease activity with an Infinite M200Pro fluorescence plate reader (excitation at 368 nm, emission at 467 nm; Tecan) for a period of 30 minutes with a read every minute at 25°C. The Tecan software i-control (version 1.1) was used for data analysis. Stock solutions of 1 mM bicyclic peptide were prepared by either dissolving the unpurified cyclization reaction with water or by dissolving purified and lyophilized peptide in water. The bicyclic peptides were serially diluted two-fold using assay buffer. Sigmoidal curves were fitted to the […]

[1] = Recombinant human FXII, individual plates, read-out: Residual activity (%)
[2] = read-out: Residual activity (%), Recombinant human FXII, individual plates

Row | remaining activity at 0.001 µM [1] [%] | remaining activity at 0.002 µM [1] [%] | remaining activity at 0.004 µM (Recombinant human FXII, peptide 4 nM, individual plates, read-out: Residual activity (%)) [%] | remaining activity at 0.008 µM (Recombinant human FXII, peptide 8 nM, individual plates, read-out: Residual activity (%)) [%] | remaining activity at […] (Recombinant human FXII, peptide 16 nM, individual plates, read-out: Residual activity (%)) [%] | remaining activity at […] (Recombinant human FXII, peptide 32 nM, individual plates, read-out: Residual activity (%)) [%] | remaining activity at 0.064 µM (Recombinant human FXII, peptide 64 nM, individual plates, read-out: Residual activity (%)) [%] | SMILES | pKi | remaining activity at 62.5 pM (read-out: Residual activity (%), Recombinant human FXII, peptide 0.0625 nM, individual plates) [%] | remaining activity at 0.000125 µM (read-out: Residual activity (%), Recombinant human FXII, peptide 0.125 nM, individual plates) [%] | remaining activity at 0.0005 µM (read-out: Residual activity (%), Recombinant human FXII, peptide 0.5 nM, individual plates) [%] | remaining activity at 0.001 µM [2] [%] | remaining activity at 0.002 µM [2] [%]
1 | 87.7 | 78.5 | 65.2 | 47.5 | 30 | 16.5 | 6.9 | CC(C)C[C@@H]1NC(=O)[C@H](CCC(N)=O)NC(=O)[C@H](CCCNC(=N)N)NC(=O)[C@@H]2CSCCC(=O)N3CN(CN(C3)C(=O)CCSC[C@H](NC(=O)[C@@H](N)CCCNC(=N)N)C(=O)N[C@@H](Cc3ccccc3)C(=O)N[C@@H](CCCNC(=N)N)C(=O)N[C@@H](CC(C)C)C(=O)N3CCC[C@H]3C(=O)N2)C(=O)CCSC[C@@H](C(=O)N[C@@H](CCCNC(=N)N)C(N)=O)NC(=O)[C@H](CCCNC(=N)N)NC1=O [FXII618] | – | – | – | – | – | –
2 | – | – | – | – | – | – | – | CC(C)C[C@@H]1NC(=O)[C@H](CCC(N)=O)NC(=O)[C@H](Cc2c[nH]cn2)NC(=O)[C@@H]2CSCCC(=O)N3CN(CN(C3)C(=O)CCSC[C@H](NC(=O)[C@@H](CO)NC(=O)[C@H](N)CCCNC(=N)N)C(=O)N[C@@H](Cc3ccc(F)cc3)C(=O)N[C@@H](CCCNC(=N)N)C(=O)N[C@@H](CC(C)C)C(=O)N3CCC[C@H]3C(=O)N2)C(=O)CCSC[C@@H](C(N)=O)NC(=O)C[C@H](CCCNC(=N)N)NC1=O [FXII900] (H-[dR][dS]C[Phe(4-F)]RLPCHQL[β3hR]C-NH2; linker 3-8-13 via TATA) | 9.29 | 93.8 | 87.9 | 61.1 | 35.5 | 10.4
